test: in vitro; settings: African green monkey

SMILES | CC50
O=c1[nH]cnc2c([C@@H]3N[C@H](CO)[C@@H](O)[C@H]3O)c[nH]c12 [Forodesine] | > 100 µM
CC(C)Nc1nc2cc(Cl)c(Cl)cc2n1[C@H]1O[C@@H](CO)[C@H](O)[C@@H]1O [Maribavir] | > 100 µM
CC(C)C(=O)OC[C@H]1O[C@@H](n2ccc(NO)nc2=O)[C@H](O)[C@@H]1O [Molnupiravir] | > 100 µM
COc1nc(N)nc2c1ncn2[C@@H]1O[C@H](CO)[C@@H](O)[C@@H]1O [Nelarabine] | > 100 µM
CCC(CC)COC(=O)[C@H](C)N[P@](=O)(OC[C@H]1O[C@@](C#N)(c2ccc3c(N)ncnn23)[C@H](O)[C@@H]1O)Oc1ccccc1 [Remdesivir] | > 100 µM
CC(C)=CCNc1ncnc2c1ncn2[C@@H]1O[C@H](CO)[C@@H](O)[C@H]1O [Riboprine, N ^6-(2-Isopentenyl)adenosine] | > 100 µM
OC[C@H]1O[C@@H](n2cnc3c(N[C@@H]4CCOC4)ncnc32)[C@H](O)[C@@H]1O [Tecadenoson] | > 100 µM
Nc1ncnc2c1ncn2[C@@H]1O[C@H](CO)[C@@H](O)[C@@H]1O [Vidarabine, Arabinosyladenine] | > 100 µM

Source: article PMC9450471 (Computational Biology and Chemistry, 2022)
